Measured values reported in ChEMBL document CHEMBL1201862, “PubChem BioAssay data set” (2004).
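Protocol summary: plate cells (96-well), add compound at 5 concentrations, incubate 48 h, interpolate endpoints linearly. At the GI50, growth is halved.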 Active and inactive are the calls of the source. Rule as the data show it: active = GI50 up to about 1.1 µM and inactive = higher.

How the values were obtained:
Experiment in all cases: DTP human tumour cell line panel, 48 h
[1] = system: NCI/ADR-RES
[2] = system: SW-620
[3] = system: SK-MEL-2
[4] = system: UO-31
[5] = system: SK-OV-3
[6] = system: OVCAR-5
[7] = system: MOLT-4
[8] = system: KM12
[9] = system: RPMI-8226
[10] = system: SF-539
[11] = system: Malme-3M
[12] = system: A498
[13] = system: UACC-62
[14] = system: T47D
[15] = system: OVCAR-4
[16] = system: HCT-116
[17] = system: RXF 393
[18] = system: HCT-15
[19] = system: ACHN
[20] = system: MDA-N
[21] = system: BT-549
[22] = system: 786-0
[23] = system: SK-MEL-5
[24] = system: DU-145
[25] = system: NCI-H522
[26] = system: SN12C
[27] = system: HOP-62
[28] = system: MCF7
[29] = system: MDA-MB-435
[30] = system: PC-3
[31] = system: SF-268
[32] = system: NCI-H460
[33] = system: SNB-75
[34] = system: HL-60
[35] = system: HOP-92
[36] = system: LOX IMVI
[37] = system: COLO 205
[38] = system: Hs-578T
[39] = system: CCRF-CEM
[40] = system: SK-MEL-28
[41] = system: IGROV-1
[42] = system: TK-10
[43] = system: SF-295
[44] = system: A549
[45] = system: MDA-MB-231
[46] = system: SNB-19
[47] = system: K562
[48] = system: EKVX
[49] = system: SR
[50] = system: M14
[51] = system: OVCAR-3
[52] = system: NCI-H23
[53] = system: UACC-257
[54] = system: HCC 2998
[55] = system: U-251
[56] = system: HT-29
[57] = system: CAKI-1
[58] = system: OVCAR-8
[59] = system: NCI-H226

With `Oc1ccc(/C=C\c2nnc(/C=C\c3ccc(O)c(O)c3)s2)cc1O` the GI50 [1] was 7670 nM (inactive), the GI50 [2] was 1490 nM (inactive) and the GI50 [3] was 11700 nM (inactive). For the same molecule, the GI50 [4] was 3380 nM (inactive), the GI50 [5] was 13600 nM (inactive) and the GI50 [6] was > 48600 nM (inactive). For the same molecule, the GI50 [7] was 1080 nM (active), the GI50 [8] was 5450 nM (inactive) and the GI50 [9] was 1320 nM (inactive). For the same molecule, the GI50 [10] was 3360 nM (inactive), the GI50 [11] was 2030 nM (inactive) and the GI50 [12] was 9160 nM (inactive). For the same molecule, the GI50 [13] was 3820 nM (inactive), the GI50 [14] was 2350 nM (inactive) and the GI50 [15] was 4340 nM (inactive). For the same molecule, the GI50 [16] was 3260 nM (inactive), the GI50 [17] was 5160 nM (inactive) and the GI50 [18] was 3850 nM. The GI50 [19] was 3690 nM (inactive), the GI50 [20] was 4680 nM (inactive) and the GI50 [21] was 7190 nM (inactive). The GI50 [22] was 5970 nM (inactive), the GI50 [23] was 3200 nM (inactive) and the GI50 [24] was 7050 nM (inactive). For the same molecule, the GI50 [25] was 875 nM (active), the GI50 [26] was 5980 nM (inactive) and the GI50 [27] was 8850 nM (inactive). The GI50 [28] was 3000 nM (inactive), the GI50 [29] was 3780 nM (inactive) and the GI50 [30] was 8970 nM (inactive). For the same molecule, the GI50 [31] was 2890 nM (inactive), the GI50 [32] was 4070 nM (inactive) and the GI50 [33] was 5260 nM (inactive). The GI50 [34] was 853 nM (active), the GI50 [35] was 5070 nM (inactive) and the GI50 [36] was 5460 nM (inactive). For the same molecule, the GI50 [37] was 8260 nM (inactive), the GI50 [38] was 3730 nM (inactive) and the GI50 [39] was 179 nM (active). The GI50 [40] was 7450 nM (inactive), the GI50 [41] was 4090 nM (inactive) and the GI50 [42] was 6530 nM (inactive). The GI50 [43] was 12200 nM (inactive), the GI50 [44] was 6310 nM (inactive) and the GI50 [45] was 20000 nM (inactive). For the same molecule, the GI50 [46] was 6070 nM (inactive), the GI50 [47] was 1210 nM (inactive) and the GI50 [48] was 16600 nM (inactive). The GI50 [49] was 1910 nM (inactive), the GI50 [50] was 6100 nM (inactive) and the GI50 [51] was 3690 nM (inactive). The GI50 [52] was 3340 nM (inactive), the GI50 [53] was 8340 nM (inactive) and the GI50 [54] was 8320 nM (inactive). For the same molecule, the GI50 [55] was 4070 nM (inactive), the GI50 [56] was 36100 nM (inactive) and the GI50 [57] was 5140 nM (inactive). For the same molecule, the GI50 [58] was 4560 nM (inactive) and the GI50 [59] was 7730 nM (inactive).

With `COc1cc(C2C=C(c3ccccc3)Oc3cc4c(cc32)OCO4)cc(OC)c1OC` (stereo not drawn) the GI50 [1] was 312 nM (active), the GI50 [2] was 406 nM (active) and the GI50 [3] was 1910 nM (inactive). For the same molecule, the GI50 [4] was 1190 nM (inactive), the GI50 [5] was 191 nM (active) and the GI50 [6] was 585 nM (active). The GI50 [7] was 430 nM (active), the GI50 [8] was 380 nM (active) and the GI50 [9] was 555 nM (active). For the same molecule, the GI50 [10] was 265 nM (active), the GI50 [11] was 527 nM (active) and the GI50 [12] was 495 nM (active). The GI50 [13] was 446 nM (active), the GI50 [14] was 2000 nM (inactive) and the GI50 [15] was 6370 nM (inactive). The GI50 [16] was 311 nM (active), the GI50 [17] was 84.3 nM (active) and the GI50 [18] was 324 nM. The GI50 [19] was 1530 nM (inactive), the GI50 [20] was 249 nM (active) and the GI50 [21] was 632 nM (active). The GI50 [22] was 386 nM (active), the GI50 [23] was 502 nM (active) and the GI50 [24] was 361 nM (active). For the same molecule, the GI50 [25] was 327 nM (active), the GI50 [26] was 675 nM (active) and the GI50 [27] was 675 nM (active). For the same molecule, the GI50 [28] was 409 nM (active), the GI50 [29] was 188 nM (active) and the GI50 [30] was 354 nM (active). For the same molecule, the GI50 [31] was 3170 nM (inactive), the GI50 [32] was 436 nM (active) and the GI50 [33] was 2400 nM (inactive). The GI50 [34] was 521 nM (active), the GI50 [35] was 15000 nM (inactive) and the GI50 [36] was 569 nM (active). The GI50 [37] was 330 nM (active), the GI50 [38] was 348 nM (active) and the GI50 [39] was 460 nM (active). The GI50 [40] was 570 nM (active), the GI50 [41] was 403 nM (active) and the GI50 [42] was > 36200 nM (inactive). The GI50 [43] was 124 nM (active), the GI50 [44] was 200 nM (active) and the GI50 [45] was 458 nM (active). For the same molecule, the GI50 [46] was 3940 nM (inactive), the GI50 [47] was 435 nM (active) and the GI50 [48] was 565 nM (active). For the same molecule, the GI50 [49] was 333 nM (active), the GI50 [50] was 350 nM (active) and the GI50 [51] was 324 nM (active). For the same molecule, the GI50 [52] was 436 nM (active), the GI50 [53] was 3330 nM (inactive) and the GI50 [54] was 341 nM (active). For the same molecule, the GI50 [55] was 449 nM (active), the GI50 [56] was 324 nM (active) and the GI50 [57] was 507 nM (active). The GI50 [58] was 502 nM (active) and the GI50 [59] was 376 nM (active).
